Assay results published in the NIST ThermoML archive (doi:10.1016/j.fluid.2018.07.012).
Numbers after ± are expanded uncertainties.

Settings: Fluid (supercritical or subcritical phases), Dynamic light scattering

O=C=O [carbon dioxide]
thermal diffusivity (293.55 K, 10990 kPa): 4.54e-08 ± 1.4e-09 m2/s
thermal diffusivity (295.33 K, 8060 kPa): 3.64e-08 ± 1.1e-09 m2/s
thermal diffusivity (295.4 K, 10050 kPa): 4.04e-08 ± 1.2e-09 m2/s
thermal diffusivity (297.27 K, 7520 kPa): 2.9e-08 ± 1e-09 m2/s
thermal diffusivity (297.45 K, 7000 kPa): 2.67e-08 ± 9e-10 m2/s
thermal diffusivity (302.29 K, 11020 kPa): 3.74e-08 ± 1.2e-09 m2/s
thermal diffusivity (302.43 K, 8030 kPa): 2.25e-08 ± 8e-10 m2/s
thermal diffusivity (302.5 K, 8980 kPa): 2.81e-08 ± 1e-09 m2/s
thermal diffusivity (303.34 K, 10000 kPa): 3.28e-08 ± 1.1e-09 m2/s
thermal diffusivity (305.32 K, 7050 kPa): 3.23e-08 ± 2e-09 m2/s
thermal diffusivity (305.77 K, 7510 kPa): 1.22e-08 ± 1e-09 m2/s
thermal diffusivity (307 K, 8060 kPa): 8.8e-09 ± 5e-10 m2/s
thermal diffusivity (307.3 K, 9050 kPa): 2.14e-08 ± 8e-10 m2/s
thermal diffusivity (307.42 K, 10540 kPa): 2.76e-08 ± 9e-10 m2/s
thermal diffusivity (312.35 K, 8020 kPa): 2.68e-08 ± 1.1e-09 m2/s
thermal diffusivity (312.44 K, 9010 kPa): 9.3e-09 ± 6e-10 m2/s
thermal diffusivity (313.93 K, 10020 kPa): 1.71e-08 ± 7e-10 m2/s
thermal diffusivity (314.2 K, 11020 kPa): 2.66e-08 ± 1e-09 m2/s
thermal diffusivity (316.1 K, 7000 kPa): 6.47e-08 ± 1.9e-09 m2/s
thermal diffusivity (316.65 K, 7490 kPa): 5.72e-08 ± 1.8e-09 m2/s
thermal diffusivity (317.11 K, 9010 kPa): 1.99e-08 ± 8e-10 m2/s
thermal diffusivity (317.19 K, 10190 kPa): 1.4e-08 ± 8e-10 m2/s
thermal diffusivity (317.56 K, 8000 kPa): 4.32e-08 ± 1.5e-09 m2/s
thermal diffusivity (322.67 K, 10290 kPa): 2.13e-08 ± 9e-10 m2/s
thermal diffusivity (323.48 K, 11000 kPa): 1.97e-08 ± 8e-10 m2/s
thermal diffusivity (324.73 K, 9080 kPa): 4.26e-08 ± 1.4e-09 m2/s
thermal diffusivity (324.99 K, 8160 kPa): 6.12e-08 ± 1.8e-09 m2/s
thermal diffusivity (326.51 K, 7010 kPa): 8.98e-08 ± 2.5e-09 m2/s
thermal diffusivity (326.93 K, 7480 kPa): 7.92e-08 ± 2.3e-09 m2/s
thermal diffusivity (328.26 K, 11000 kPa): 2.63e-08 ± 9e-10 m2/s
thermal diffusivity (333.11 K, 11010 kPa): 3.22e-08 ± 1.1e-09 m2/s
thermal diffusivity (333.51 K, 9020 kPa): 6e-08 ± 1.8e-09 m2/s
thermal diffusivity (333.97 K, 8140 kPa): 8.06e-08 ± 2.3e-09 m2/s
thermal diffusivity (334.01 K, 10320 kPa): 4.36e-08 ± 1.4e-09 m2/s
thermal diffusivity (336.92 K, 7000 kPa): 1.08e-07 ± 2.9e-09 m2/s
thermal diffusivity (337.46 K, 7510 kPa): 1.02e-07 ± 2.8e-09 m2/s
thermal diffusivity (343.12 K, 8000 kPa): 9.67e-08 ± 2.7e-09 m2/s
thermal diffusivity (343.7 K, 9050 kPa): 7.77e-08 ± 2.2e-09 m2/s
thermal diffusivity (343.72 K, 10060 kPa): 6.38e-08 ± 1.8e-09 m2/s
thermal diffusivity (343.95 K, 10970 kPa): 5.2e-08 ± 1.6e-09 m2/s
thermal diffusivity (345.99 K, 11010 kPa): 5.38e-08 ± 1.6e-09 m2/s
thermal diffusivity (346.99 K, 7020 kPa): 1.31e-07 ± 3.5e-09 m2/s
thermal diffusivity (347.28 K, 7500 kPa): 1.17e-07 ± 3.2e-09 m2/s
thermal diffusivity (353.14 K, 10270 kPa): 7.34e-08 ± 2.1e-09 m2/s
thermal diffusivity (353.95 K, 9020 kPa): 9.9e-08 ± 2.7e-09 m2/s
thermal diffusivity (354.57 K, 8000 kPa): 1.15e-07 ± 3.1e-09 m2/s
thermal diffusivity (356.06 K, 11030 kPa): 7.11e-08 ± 2e-09 m2/s
thermal diffusivity (357.15 K, 7030 kPa): 1.46e-07 ± 3.9e-09 m2/s
thermal diffusivity (357.37 K, 7500 kPa): 1.37e-07 ± 3.6e-09 m2/s
thermal diffusivity (363.07 K, 10000 kPa): 8.99e-08 ± 2.5e-09 m2/s
thermal diffusivity (363.43 K, 9020 kPa): 1.07e-07 ± 2.9e-09 m2/s
thermal diffusivity (364.02 K, 8020 kPa): 1.31e-07 ± 3.5e-09 m2/s
thermal diffusivity (365.89 K, 11050 kPa): 8.37e-08 ± 2.3e-09 m2/s
thermal diffusivity (367.01 K, 7010 kPa): 1.62e-07 ± 4.2e-09 m2/s
thermal diffusivity (367.19 K, 7600 kPa): 1.54e-07 ± 4.1e-09 m2/s
thermal diffusivity (373.34 K, 10090 kPa): 1.04e-07 ± 2.8e-09 m2/s
thermal diffusivity (373.59 K, 9010 kPa): 1.24e-07 ± 3.3e-09 m2/s
thermal diffusivity (374.62 K, 8010 kPa): 1.49e-07 ± 4e-09 m2/s
thermal diffusivity (375.92 K, 11040 kPa): 9.69e-08 ± 2.6e-09 m2/s
thermal diffusivity (377.05 K, 7040 kPa): 1.82e-07 ± 4.7e-09 m2/s
thermal diffusivity (377.25 K, 7480 kPa): 1.75e-07 ± 4.6e-09 m2/s
thermal diffusivity (382.51 K, 10040 kPa): 1.23e-07 ± 3.3e-09 m2/s
thermal diffusivity (383.53 K, 8040 kPa): 1.66e-07 ± 4.4e-09 m2/s
thermal diffusivity (383.71 K, 9020 kPa): 1.41e-07 ± 3.7e-09 m2/s
thermal diffusivity (385.64 K, 10990 kPa): 1.15e-07 ± 3.1e-09 m2/s
thermal diffusivity (386.8 K, 7480 kPa): 1.87e-07 ± 4.9e-09 m2/s
thermal diffusivity (386.82 K, 7010 kPa): 2.09e-07 ± 5.5e-09 m2/s
thermal diffusivity (392.06 K, 10550 kPa): 1.32e-07 ± 3.5e-09 m2/s
thermal diffusivity (393.82 K, 9040 kPa): 1.57e-07 ± 4.1e-09 m2/s
thermal diffusivity (394.36 K, 7960 kPa): 1.89e-07 ± 4.9e-09 m2/s
thermal diffusivity (395.37 K, 11030 kPa): 1.23e-07 ± 3.3e-09 m2/s
thermal diffusivity (396.68 K, 7010 kPa): 2.2e-07 ± 5.7e-09 m2/s
thermal diffusivity (396.85 K, 7490 kPa): 2.04e-07 ± 5.3e-09 m2/s
thermal diffusivity (402.64 K, 10200 kPa): 1.45e-07 ± 3.8e-09 m2/s
thermal diffusivity (403.05 K, 9020 kPa): 1.66e-07 ± 4.3e-09 m2/s
thermal diffusivity (403.62 K, 8070 kPa): 1.98e-07 ± 5.2e-09 m2/s
thermal diffusivity (405.15 K, 11090 kPa): 1.3e-07 ± 3.5e-09 m2/s
thermal diffusivity (406.44 K, 7020 kPa): 2.38e-07 ± 6.1e-09 m2/s
thermal diffusivity (406.5 K, 7500 kPa): 2.2e-07 ± 5.7e-09 m2/s
